Reference: patent publication US11419909B2, “Compositions and methods for maintaining or enhancing homeostasis or function of female lower reproductive tract” (FAIRHAVEN HEALTH, LLC, priority 2016, dated 2022)

Conditions: plant derived raw materials

Structure (SMILES): O=C[C@H](O)[C@@H](O)[C@H](O)CO [D-Xylose source 1, D-Xylose]
- Endotoxin Level: <0.07 EU/mg
